Data reported in US20260315604A1, “OTUB1 Small-Molecule Binders and OTUB1-recruiting Deubiquitinase-targeting Chimeras (DUBTACs)” (ICAHN SCHOOL OF MEDICINE AT MOUNT SINAI, priority 2023, published 2026).

target: T1, Human OTUB1 wild-type (Homo sapiens, UniProt Q96FW1); assay: Covalent modification of OTUB1 (adduct formation), mass spectrometry-based assay (OTUB1 covalent binders; selected CFTR or cGAS based bivalent compounds); type: binding; conditions: covalent adduct formation with OTUB1 protein
T1 construct: His tag (N); made in house; host or cells: E. coli BL21-CodonPlus (DE3)-RIPIL
Procedure, shortened: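 His-tagged human OTUB1 (10 μM), E. coli-expressed, incubated with compound (2500 μM) in 50 mM Tris-HCl pH 7.5, 150 mM NaCl, 0.5 mM TCEP for 1 h at room temperature. Adduct detected by intact-protein LC/ESI-TOF mass spectrometry after buffer exchange; duplicates.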

T1 sequence (Q96FW1 whole entry): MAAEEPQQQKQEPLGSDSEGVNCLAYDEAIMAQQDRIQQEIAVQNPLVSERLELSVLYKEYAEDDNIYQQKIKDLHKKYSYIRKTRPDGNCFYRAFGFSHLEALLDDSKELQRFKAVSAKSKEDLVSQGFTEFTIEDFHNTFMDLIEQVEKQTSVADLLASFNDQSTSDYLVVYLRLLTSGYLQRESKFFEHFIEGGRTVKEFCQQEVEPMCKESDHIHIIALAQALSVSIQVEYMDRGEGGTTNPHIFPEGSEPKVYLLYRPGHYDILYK

For C=CC(=O)N1CCN(c2ccc(C)o2)C(=O)C1 [EN523, reference compound], which “% of OTUB1 modified” value is on record?
The value was 40%.

Which “% of OTUB1 modified” value does the source give for CN(C)C(C)(C)C#CC(=O)N1CC(C(=O)Nc2cc3ccccc3s2)C1 [XS224-107, N-(benzo[b]thiophen-2-yl)-1-(4-(dimethylamino)-4-methylpent-2-ynoyl)azetidine-3-carboxamide] here?
The value was 60%.

For CN(C)CC#CC(=O)N1CC(C(=O)Nc2cc3c(s2)CCCC3)C1 [XS224-108, 1-(4-(dimethylamino)but-2-ynoyl)-N-(4,5,6,7-tetrahydrobenzo[b]thiophen-2-yl)azetidine-3-carboxamide], which “% of OTUB1 modified” value is on record?
The value was 100%.

With CN(C)C(C)(C)C#CC(=O)N1CC(C(=O)Nc2cc3c(s2)CCCC3)C1 [XS224-109, 1-(4-(dimethylamino)-4-methylpent-2-ynoyl)-N-(4,5,6,7-tetrahydrobenzo[b]thiophen-2-yl)azetidine-3-carboxamide] as the compound, how does the “% of OTUB1 modified” value read?
Its value is 75%.

With Cc1ccc(NC(=O)C2CN(C(=O)C#CCN(C)C)C2)s1 [XS224-110, 1-(4-(dimethylamino)but-2-ynoyl)-N-(5-methylthiophen-2-yl)azetidine-3-carboxamide] as the compound, how does the “% of OTUB1 modified” value read?
Its value is 100%.

Which “% of OTUB1 modified” value does the source give for Cc1ccc(NC(=O)C2CN(C(=O)C#CC(C)(C)N(C)C)C2)s1 [XS224-111, 1-(4-(dimethylamino)-4-methylpent-2-ynoyl)-N-(5-methylthiophen-2-yl)azetidine-3-carboxamide] here?
Its value is 53%.

With CC(C)c1ccc(NC(=O)C2CN(C(=O)C#CCN(C)C)C2)s1 [XS224-116, 1-(4-(dimethylamino)but-2-ynoyl)-N-(5-isopropylthiophen-2-yl)azetidine-3-carboxamide] as the compound, how does the “% of OTUB1 modified” value read?
The value was 100%.

For CC(C)c1ccc(NC(=O)C2CN(C(=O)C#CC(C)(C)N(C)C)C2)s1 [XS224-117, 1-(4-(dimethylamino)-4-methylpent-2-ynoyl)-N-(5-isopropylthiophen-2-yl)azetidine-3-carboxamide], which “% of OTUB1 modified” value is on record?
Its value is 60%.

With CN(C)CC#CC(=O)N1CC(C(=O)Nc2csc3ccccc23)C1 [XS224-118, N-(benzo[b]thiophen-3-yl)-1-(4-(dimethylamino)but-2-ynoyl)azetidine-3-carboxamide] as the compound, how does the “% of OTUB1 modified” value read?
Its value is 10%.

For CN(C)C(C)(C)C#CC(=O)N1CC(C(=O)Nc2csc3ccccc23)C1 [XS224-119, N-(benzo[b]thiophen-3-yl)-1-(4-(dimethylamino)-4-methylpent-2-ynoyl)azetidine-3-carboxamide], which “% of OTUB1 modified” value is on record?
The value was 60%.

With Cc1ccc(C(=O)N2CC(NC(=O)/C=C/CN(C)C)C2)s1 [XS224-143, (E)-4-(dimethylamino)-N-(1-(5-methylthiophene-2-carbonyl)azetidin-3-yl)but-2-enamide] as the compound, how does the “% of OTUB1 modified” value read?
Its value is 7%.

Which “% of OTUB1 modified” value does the source give for Cc1ccc(C(=O)N2CC(NC(=O)C#CCN(C)C)C2)s1 [XS224-144, 4-(dimethylamino)-N-(1-(5-methylthiophene-2-carbonyl)azetidin-3-yl)but-2-ynamide] here?
Its value is 90%.

For Cc1ccc(C(=O)N2CC(NC(=O)C#CC(C)(C)N(C)C)C2)s1 [XS224-145, 4-(dimethylamino)-4-methyl-N-(1-(5-methylthiophene-2-carbonyl)azetidin-3-yl)pent-2-ynamide], which “% of OTUB1 modified” value is on record?
The value was 60%.

Which “% of OTUB1 modified” value does the source give for Cc1ccc(C(=O)NC2CC(NC(=O)C#CCN(C)C)C2)s1 (centres unmarked) [XS224-148, N-(3-(4-(dimethylamino)but-2-ynamido)cyclobutyl)-5-methylthiophene-2-carboxamide] here?
The value was 90%.

With Cc1ccc(C(=O)NC2CC(NC(=O)C#CC(C)(C)N(C)C)C2)s1 (centres unmarked) [XS224-149, N-(3-(4-(dimethylamino)-4-methylpent-2-ynamido)cyclobutyl)-5-methylthiophene-2-carboxamide] as the compound, how does the “% of OTUB1 modified” value read?
Its value is 15%.

With Cc1ccc(C(=O)NC2CN(C(=O)C#CCN(C)C)C2)s1 [XS224-150, N-(1-(4-(dimethylamino)but-2-ynoyl)azetidin-3-yl)-5-methylthiophene-2-carboxamide] as the compound, how does the “% of OTUB1 modified” value read?
Its value is 73%.

With CN(C)C/C=C/C(=O)N1CC(NC(=O)c2cc3ccccc3s2)C1 [XS224-154, (E)-N-(1-(4-(dimethylamino)but-2-enoyl)azetidin-3-yl)benzo[b]thiophene-2-carboxamide] as the compound, how does the “% of OTUB1 modified” value read?
Its value is 80%.

For CN(C)CC#CC(=O)N1CC(NC(=O)c2cc3ccccc3s2)C1 [XS224-155, A-(1-(4-(dimethylamino)but-2-ynoyl)azetidin-3-yl)benzo[b]thiophene-2-carboxamide], which “% of OTUB1 modified” value is on record?
The value was 97%.

With CN(C)C(C)(C)C#CC(=O)N1CC(NC(=O)c2cc3ccccc3s2)C1 [XS224-156, N-(1-(4-(dimethylamino)-4-methylpent-2-ynoyl)azetidin-3-yl)benzo[b]thiophene-2-carboxamide] as the compound, how does the “% of OTUB1 modified” value read?
The value was 85%.

With CN(C)C/C=C/C(=O)N1CC(NC(=O)c2cc3c(s2)CCCC3)C1 [XS224-157, (E)-N-(1-(4-(dimethylamino)but-2-enoyl)azetidin-3-yl)-4,5,6,7-tetrahydrobenzo[b]thiophene-2-carboxamide] as the compound, how does the “% of OTUB1 modified” value read?
Its value is 49%.

With CN(C)CC#CC(=O)N1CC(NC(=O)c2cc3c(s2)CCCC3)C1 [XS224-158, N-(1-(4-(dimethylamino)but-2-ynoyl)azetidin-3-yl)-4,5,6,7-tetrahydrobenzo[b]thiophene-2-carboxamide] as the compound, how does the “% of OTUB1 modified” value read?
Its value is 92%.

Which “% of OTUB1 modified” value does the source give for CN(C)C(C)(C)C#CC(=O)N1CC(NC(=O)c2cc3c(s2)CCCC3)C1 [XS224-159, N-(1-(4-(dimethylamino)-4-methylpent-2-ynoyl)azetidin-3-yl)-4,5,6,7-tetrahydrobenzo[b]thiophene-2-carboxamide] here?
The value was 92%.

tested on: OTUB1; assay: not given; conditions: background statement; cited from earlier work

Which “inhibition of the enzymatic activity of OTUB1” value does the source give for Cc1ccc(S(=O)(=O)Nc2cc(C(F)(F)F)ccc2C(=O)Nc2nc(-c3ccccc3)cs2)cc1 [ML364] here?
The value was “inhibit the enzymatic activity of OTUB1”.

target: T2, cGAS and OTUB1 (Homo sapiens, UniProt Q8N884+Q96FW1); assay: cGAS co-elution with OTUB1; type: binding; conditions: in the presence of compound; FIG. 6F
T2 construct: other panels use HeLa cells; recombinant His-OTUB1 from E. coli described
T2 sequence (Q8N884 whole entry): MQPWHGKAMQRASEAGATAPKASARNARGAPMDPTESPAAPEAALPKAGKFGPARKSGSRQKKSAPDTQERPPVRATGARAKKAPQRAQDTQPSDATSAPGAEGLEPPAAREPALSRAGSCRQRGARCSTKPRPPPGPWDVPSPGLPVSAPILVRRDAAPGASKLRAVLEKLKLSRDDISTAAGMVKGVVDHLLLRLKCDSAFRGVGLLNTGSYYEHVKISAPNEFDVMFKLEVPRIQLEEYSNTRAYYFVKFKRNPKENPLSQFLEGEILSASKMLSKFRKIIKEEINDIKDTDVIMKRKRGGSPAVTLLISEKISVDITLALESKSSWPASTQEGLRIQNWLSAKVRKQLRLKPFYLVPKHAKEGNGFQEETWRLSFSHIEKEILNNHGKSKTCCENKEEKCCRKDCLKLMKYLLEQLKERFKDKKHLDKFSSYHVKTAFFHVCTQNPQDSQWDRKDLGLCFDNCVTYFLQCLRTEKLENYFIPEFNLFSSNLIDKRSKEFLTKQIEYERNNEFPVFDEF
T2 sequence (Q96FW1 whole entry): as the sequence (Q96FW1 whole entry) above

With CN(C)C/C=C/C(=O)N1CCN(c2ccc(CCC(=O)NCCCCCCCCCNC(=O)Cn3ccc(-c4cc(Cl)c(Cl)c5[nH]c6c(c45)CN(C(=O)CO)CC6)n3)s2)C(=O)C1 [MS7829] as the compound, how does the “co-elution of cGAS with OTUB1” value read?
The value was “cGAS co-elutes with OTUB1”.

Which “co-elution of cGAS with OTUB1” value does the source give for CN(C)C/C=C/C(=O)N1CCN(c2ccc(CCNC(=O)CCCCCCCCCC(=O)NCCn3ccc(-c4cc(Cl)c(Cl)c5[nH]c6c(c45)CN(C(=O)CO)CC6)n3)s2)C(=O)C1 [mS8588, (E)-N1-(2-(3-(6,7-dichloro-2-(2-hydroxyacetyl)-2,3,4,5-tetrahydro-1H-pyrido[4,3-b]indol-9-yl)-1H-pyrazol-1-yl)ethyl)-N11-(2-(5-(4-(4-(dimethylamino)but-2-enoyl)-2-oxopiperazin-1-yl)thiophen-2-yl)ethyl)undecanediamide] here?
Its value is “cGAS co-elutes with OTUB1”.

tested on: OTUB1; assay: not given; conditions: background statement; cited from earlier work; remark: another data set of the same source

Which “binding affinity to OTUB1” value does the source give for C=CC(=O)N1CCN(c2ccc(C)o2)C(=O)C1 [EN523, reference compound] here?
The value was “low binding affinity to OTUB1”.
